According to US20090137667A1, “Pesticide Delivery System” (priority 2006, published 2009):
Read-outs that look alike come from different tables or passages of the source.

Experiments:
[1] = Stability and appearance of aqueous dispersions on storage; format: physicochemical; conditions: Table 14, microblend with Pluronic P123:Soprophor BSU 1:1, storage at room temperature
[2] = cited from earlier work; for Log P: as referred in The Pesticide Manual, 11th edition (Table 18)
[3] = Soil mobility by soil thin layer chromatography (s-TLC); format: physicochemical; conditions: Example 50, 14C-bifenthrin, 10% aqueous dispersions, water eluant
Method: The evaluation of the soil mobility of the bifenthrin microblends according to the invention was performed using soil thin layer chromatography (s-TLC). Air-dried greenhouse topsoil, sieved to pass through with a 250 μm sieve was used to prepare s-TLC plates. Thirty mL of distilled water was added to 60 g of the sieved soil and the mixture was thoroughly grounded until a smooth, moderately fluid slurry was obtained. The soil slurry was quickly spread evenly across a clean grooved glass plate. Plates contained 9×1 cm channels cut to a depth of 2 mm, with the channels spaced 1 cm apart. Plates were allowed to dry at room temperature over 24 hours. A horizontal line was scribed 12.5 cm above the plate base through the soil layer before the soil dried completely. Bifenthrin microblends used in these experiments were prepared using a bifenthrin sample spiked with ^14C-radiolabeled bifenthrin to achieve reasonable sensitivity. Aqueous dispersions of microblends with concentrations of 10% were used in these experiments. Aliquots of each radiolabeled microblend were spotted 1.5 cm above the plate base. ^14C-labeled sulfentrazone and suspension of ^14C-labeled bifenthrin were used as controls. […]
The s-TLC were then scanned for 2 hours using a Packard InstantImager™ TLC plate scanner. Rf values were determined from the images obtained using the following equation (1): […]

[4] = Particle size of aqueous dispersions by dynamic light scattering; format: physicochemical; conditions: Table 14, microblend with Pluronic P123:Soprophor BSU 1:1, insecticide 4.5 mg/ml, after 2 hours, Nanotrac 250
Method: The suspensions were shaken for 40 h at room temperature followed by centrifugation for 10 min at 13,000 rpm. The concentration of Bifenthrin in the supernatants was determined by UV-spectroscopy. For this purpose, standard solutions containing from 0 to 0.58 mg/ml of Bifenthrin in ethanol were prepared using a stock solution of Bifenthrin in acetonitrile with concentration of 8.7 mg/ml. These solutions were used to obtain a calibration curve by measuring an absorbance at 260 nm using Perkin-Elmer Lambda 25 spectrophotometer. […]
Compositions of insecticides were prepared using melts of mixtures of nonionic block copolymer and ethoxylated surfactants. Specifically, tristyrylphenol etoxylate (Soprophor BSU, Rhodia) was used in combination with Pluronic P123 (PEO20-PPO69-PEO20). 250 mg of Pluronic P123 were mixed with 250 mg of Soprophor BSU, and 50 mg of fine powder of the insecticide, and were melted together for 1 hour. The composition of the copolymer/surfactant mixture was P123:Soprophor=1:1 by weight. The feeding copolymer/surfactant:insecticide ratio was 10:1. The melted compositions were cooled down to room temperature. […] 50 mg of the composition was rehydrated in 1 ml of water upon shaking for 1 hour. The total concentration of copolymer/surfactant components in the mixture was ca. 4.6%. The targeted content of insecticide in the microblend dispersion was 4.5 mg/ml.

[5] = log P measured by the procedure of Donovan and Pescatore, internally standardized with toluene and triphenylene; format: physicochemical
Method: Compositions of herbicides were prepared using melts of mixtures of nonionic block copolymer and ethoxylated surfactants. Specifically, tristyrylphenol etoxylate (Soprophor BSU, Rhodia) was used in combination with Pluronic P123 (PEO20-PPO69-PEO20). The list of the herbicides and corresponding log P values (the log P values were measured according procedure described by Donovan and Pescatore, J Chromatography A 2002, 952, 47-61) are presented in Table 22. All log P values were measured at pH 7, except for clethodim, measured at pH 2. First, a stock blend of Pluronic P123 and Soprophor BSU was prepared by melting together 50 g of Pluronic P123 with 50 g of Soprophor BSU at 70° C. to form a clear, homogeneous melt. Composition of the […]

[6] = pH = 2, based on logP assigned to toluene 2.605 and triphenylene 6.266
[7] = pH = 7, based on logP assigned to toluene 2.605 and triphenylene 6.266
[8] = pH 2, pH = 2, based on logP assigned to toluene 2.605 and triphenylene 6.266, read-out: logP, Average
[9] = pH 7, pH = 7, based on logP assigned to toluene 2.605 and triphenylene 6.266, read-out: logP, Average
[10] = pH 7, measured at pH 7 (Table 22), read-out: Log P

Compound: Cc1c(COC(=O)[C@@H]2[C@H](/C=C(\Cl)C(F)(F)F)C2(C)C)cccc1-c1ccccc1 (racemic) [Bifenthrin]
- Dispersion appearance in 24 hours [1]: clear
- n-octanol partition coefficient, logP ([2]; crude Bifenthrin): > 6
- Rf [3]: 0.00
- Particle size (nm) [4]: 14 nm

Compound: CO/C=C(/C(=O)OC)c1ccccc1Oc1cc(Oc2ccccc2C#N)ncn1 [Azoxystrobin]
- logP, Average [5, 6]: 3.074
- logP, Average [5, 7]: 3.050

Compound: CCCCOCN(C(=O)CCl)c1c(CC)cccc1CC [Butachlor]
- chromatographic logP ([5]; pH 2, logP, Average): 4.12
- chromatographic logP ([5]; pH 7, Log P): 4.15
- chromatographic logP ([5]; pH 7, logP, Average): 4.15

Compound: CCOC(=O)C(Cl)Cc1cc(-n2nc(C)n(C(F)F)c2=O)c(F)cc1Cl (centres unmarked) [Carfentrazone-ethyl]
- Log P [2]: 3.36
- chromatographic logP [5, 8]: 3.99
- chromatographic logP [5, 9]: 4.02

Compound: N#Cc1c(Cl)c(Cl)c(Cl)c(C#N)c1Cl [Chlorthalonil]
- logP, Average [5, 6]: 4.357
- logP, Average [5, 7]: 4.234

Compound: CCSC(C)CC1CC(=O)C(/C(CC)=N/OC/C=C/Cl)=C(O)C1 (centres unmarked) [Clethodim]
- chromatographic logP ([5]; pH 2, measured at pH 2 (Table 22), read-out: Log P): 4.24
- chromatographic logP [5, 8]: 4.25
- chromatographic logP [5, 9]: 0.813

Compound: C#CCOC(=O)[C@@H](C)Oc1ccc(Oc2ncc(Cl)cc2F)cc1 [Clodinofop-Propargyl]
- logP, Average [5, 6]: 4.519
- logP, Average [5, 7]: 4.522

Compound: CC1(C)CON(Cc2ccccc2Cl)C1=O [Clomazone]
- Log P [2]: 2.5

Compound: CC1(C)C(C=C(Cl)Cl)C1C(=O)OC(C#N)c1cccc(Oc2ccccc2)c1 (centres unmarked) [Cypermethrin]
- Dispersion appearance in 24 hours [1]: clear
- Particle size (nm) [4]: 14 nm

Compound: O=C(Nc1ccc(F)cc1F)c1cccnc1Oc1cccc(C(F)(F)F)c1 [Diflufenican]
- chromatographic logP [5, 8]: 4.81
- chromatographic logP [5, 10]: 4.76
- chromatographic logP [5, 9]: 4.76

Compound: COC[C@H](C)N(C(=O)CCl)c1c(C)csc1C [Dimethenamid-P]
- Log P [2]: 2.05

Compound: CSC(=O)c1c(C(F)F)nc(C(F)(F)F)c(C(=O)SC)c1CC(C)C [Dithiopyr]
- chromatographic logP [5, 8]: 4.32
- chromatographic logP [5, 10]: 4.28
- chromatographic logP [5, 9]: 4.28

Compound: N#CC(CCc1ccc(Cl)cc1)(Cn1cncn1)c1ccccc1 (centres unmarked) [Febenuconazole]
- logP, Average [5, 6]: 3.716
- logP, Average [5, 7]: 3.730

Compound: N#Cc1nn(-c2c(Cl)cc(C(F)(F)F)cc2Cl)c(N)c1[S+]([O-])C(F)(F)F (centres unmarked) [Fipronil]
- Dispersion appearance in 24 hours [1]: clear
- Particle size (nm) [4]: 13 nm

Compound: CCCCOC(=O)C(C)Oc1ccc(Oc2ccc(C(F)(F)F)cn2)cc1 (centres unmarked) [Fluazifop-butyl]
- chromatographic logP ([5]; pH 2, logP, Average): 4.44
- chromatographic logP ([5]; pH 7, Log P): 4.42
- chromatographic logP ([5]; pH 7, logP, Average): 4.42

Compound: O=[N+]([O-])c1cc(C(F)(F)F)c(Cl)c([N+](=O)[O-])c1Nc1ncc(C(F)(F)F)cc1Cl [Fluazinam]
- chromatographic logP [5, 8]: 5.03
- chromatographic logP [5, 9]: 4.72

Compound: OC(Cn1cncn1)(c1ccc(F)cc1)c1ccccc1F (centres unmarked) [Flutriafol]
- chromatographic logP ([5]; pH 2, logP, Average): 2.12
- chromatographic logP ([5]; pH 7, logP, Average): 2.04

Compound: CCCCC(O)(Cn1cncn1)c1ccc(Cl)cc1Cl (centres unmarked) [Hexaconazole]
- chromatographic logP ([5]; pH 2, logP, Average): 3.35
- chromatographic logP ([5]; pH 7, logP, Average): 3.31

Compound: CCCCCCCC(=O)Oc1c(I)cc(C#N)cc1I [Ioxynil Octanoate]
- chromatographic logP [5, 8]: 5.67
- chromatographic logP [5, 10]: 5.6
- chromatographic logP [5, 9]: 5.6

Compound: CON(C)C(=O)Nc1ccc(Cl)c(Cl)c1 [Linuron]
- Log P [2]: 3.00

Compound: CCCCC(C#N)(Cn1cncn1)c1ccc(Cl)cc1 (centres unmarked) [Myclobutanil]
- chromatographic logP [5, 8]: 2.44
- chromatographic logP [5, 9]: 2.8

Compound: CCC(CC)Nc1c([N+](=O)[O-])cc(C)c(C)c1[N+](=O)[O-] [Pendimethalin]
- Log P [2]: 5.18

Compound: O=[N+]([O-])c1c(Cl)c(Cl)c(Cl)c(Cl)c1Cl [Pentachloronitrobenzene]
- chromatographic logP [5, 8]: 5.39
- chromatographic logP [5, 9]: 5.34

Compound: CCCN(CCC)c1c([N+](=O)[O-])cc(C(F)(F)F)c(N)c1[N+](=O)[O-] [Prodiamine]
- Log P [2]: 4.10

Compound: CCCSP(=O)(OCC)Oc1ccc(Br)cc1Cl (centres unmarked) [Profenofos]
- Dispersion appearance in 24 hours [1]: clear
- Particle size (nm) [4]: 13 nm

Compound: CCCC1COC(Cn2cncn2)(c2ccc(Cl)cc2Cl)O1 (centres unmarked) [Propiconazole]
- chromatographic logP [5, 8]: 3.3
- chromatographic logP [5, 9]: 3.29

Compound: CCC(CC)Nc1c([N+](=O)[O-])cc(C)c(C)c1[N+](=O)[O-] [Prowl]
- logP, Average [5, 6]: 5.108
- logP, Average [5, 7]: 5.101

Compound: COC(=O)N(OC)c1ccccc1COc1ccn(-c2ccc(Cl)cc2)n1 [Pyraclostrobin]
- chromatographic logP [5, 8]: 4.53
- chromatographic logP [5, 9]: 4.49

Compound: FC(F)(F)c1ccc(OCCCOc2c(Cl)cc(OCC=C(Cl)Cl)cc2Cl)nc1 [Pyridalyl]
- Dispersion appearance in 24 hours [1]: clear
- Particle size (nm) [4]: 14 nm

Compound: Cc1nn(-c2cc(NS(C)(=O)=O)c(Cl)cc2Cl)c(=O)n1C(F)F [Sulfentrazone]
- Rf [3]: 1.0

Compound: CC(C)(C)C(O)(CCc1ccc(Cl)cc1)Cn1cncn1 (centres unmarked) [Tebuconazole]
- chromatographic logP [5, 8]: 3.44
- chromatographic logP [5, 9]: 3.49

Compound: COP(=S)(OC)Oc1c(Cl)cc(C)cc1Cl [Tolclofos-methyl]
- chromatographic logP ([5]; pH 2, read-out: logP, Average): 4.42
- chromatographic logP ([5]; pH = 7, based on logP assigned to toluene 2.605 and triphenylene 6.266, read-out: logP, Average): 4.42

Compound: Cc1ccc(N(SC(F)(Cl)Cl)S(=O)(=O)N(C)C)cc1 [Tolyfluanid]
- logP, Average [5, 6]: 3.934
- logP, Average [5, 7]: 3.930

Compound: CCCOC/C(=N\c1ccc(Cl)cc1C(F)(F)F)n1ccnc1 [Triflumizole]
- chromatographic logP ([5]; pH 2, logP, Average): 2.6
- chromatographic logP [5, 9]: 3.89

Compound: CCCN(CCC)c1c([N+](=O)[O-])cc(C(F)(F)F)cc1[N+](=O)[O-] [Trifluran]
- chromatographic logP [5, 10]: 5.08
- logP, Average [5, 6]: 5.108
- logP, Average [5, 7]: 5.084

Compound: Abamectin
- Dispersion appearance in 24 hours [1]: clear
- Particle size (nm) [4]: 13 nm

Compound: Dinocap
- Log P ([5]; measured at pH 7 (Table 22)): 5.43
- logP, Average [5, 6]: 5.457
- logP, Average [5, 7]: 5.428

Compound: Spinosad
- Dispersion appearance in 24 hours [1]: clear
- Particle size (nm) [4]: 13 nm

Compound: Trisulfuron-methyl
- logP, Average [5, 6]: 3.542
- logP, Average [5, 7]: 0.510
